The values that follow are results of earlier work, collected in US20040067256A1, “Novel modified release formulation” (priority 2001, published 2004).

The conditions of this series: ambient temperature of 22-25° C.

Read-outs that look alike come from different tables or passages of the source.

With `CC(O)(CS(=O)(=O)c1ccc(F)cc1)C(=O)Nc1ccc(C#N)c(C(F)(F)F)c1` (racemic) [bicalutamide, 4′-cyano-α′,α′,α′-trifluoro-3-(4-fluorophenylsulphonyl)-2-hydroxy-2-methylpropiono-m-toluidide], the water-solubility entry (physiological pH) was “about 0.0046 mg/ml”.

For the compound `CCOC(=O)C1=C(C)NC(C)=C(C(=O)OC)C1c1cccc(Cl)c1Cl` (centres unmarked) [Felodipine, 2,6-dimethyl-4-(2,3-dichlorophenyl)-1,4-dihydropyridine-3,5-dicarboxylic acid-3-methyl ester-5-ethyl ester], the water-solubility result is “about 0.5 μg/ml”.
